From US10301305B2 (priority 2014, dated 2019)
pIC50: −log10 of the molar value. Structures can show the parent of a compound that is named as a salt. Where two headings read alike, the source gives them in different places.

What was measured:
Format in all cases: biochemical
S. aureus DltA = S. aureus DltA (Staphylococcus aureus (strain NCTC 8325 / PS 47), UniProt Q2FZW6); assay: in vitro DltA activity assay (luminescence), S. aureus DltA
Outline: (§1)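 His-tagged recombinant DltA (expressed in E. coli BL21, Ni-NTA purified) pre-incubated 30 min with inhibitor in 50 mM Hepes pH 8.0, MgCl2, KCl, Triton X-100, DTT. Reaction with 0.5 mM D-alanine, 0.5–5 µM ATP and pyrophosphatase for 1–2 h at RT, then residual ATP read by luciferase luminescence. IC50 from 6–10 concentrations, quench-corrected.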

E. feacium DltA = E. feacium DltA (Enterococcus faecium, UniProt Q3XZT7); assay: in vitro DltA activity assay (luminescence), E. faecium DltA
Outline: as §1

S. Agalactiae DltA = S. Agalactiae DltA (Streptococcus agalactiae serotype III (strain NEM316), UniProt Q8VM67); assay: in vitro DltA activity assay (luminescence), S. agalactiae DltA
Outline: as §1

E. feacalis DltA = E. feacalis DltA (Enterococcus faecalis, UniProt Q830N0); assay: in vitro DltA activity assay (luminescence), E. faecalis DltA
Outline: as §1

[1] = recombinant DltA, 30 min pre-incubation, 0.5 mM D-Alanine, 0.5-5 μM ATP, read-out: S. aureus DltA IC50
[2] = recombinant DltA, 30 min pre-incubation, 0.5 mM D-Alanine, 0.5-5 μM ATP, read-out: E. feacium DltA IC50
[3] = recombinant DltA, 30 min pre-incubation, 0.5 mM D-Alanine, 0.5-5 μM ATP, read-out: S. Agalactiae DltA IC50
[4] = recombinant DltA, 30 min pre-incubation, 0.5 mM D-Alanine, 0.5-5 μM ATP, read-out: E. feacalis DltA IC50

E. feacium DltA, sequence (Q3XZT7 1-504): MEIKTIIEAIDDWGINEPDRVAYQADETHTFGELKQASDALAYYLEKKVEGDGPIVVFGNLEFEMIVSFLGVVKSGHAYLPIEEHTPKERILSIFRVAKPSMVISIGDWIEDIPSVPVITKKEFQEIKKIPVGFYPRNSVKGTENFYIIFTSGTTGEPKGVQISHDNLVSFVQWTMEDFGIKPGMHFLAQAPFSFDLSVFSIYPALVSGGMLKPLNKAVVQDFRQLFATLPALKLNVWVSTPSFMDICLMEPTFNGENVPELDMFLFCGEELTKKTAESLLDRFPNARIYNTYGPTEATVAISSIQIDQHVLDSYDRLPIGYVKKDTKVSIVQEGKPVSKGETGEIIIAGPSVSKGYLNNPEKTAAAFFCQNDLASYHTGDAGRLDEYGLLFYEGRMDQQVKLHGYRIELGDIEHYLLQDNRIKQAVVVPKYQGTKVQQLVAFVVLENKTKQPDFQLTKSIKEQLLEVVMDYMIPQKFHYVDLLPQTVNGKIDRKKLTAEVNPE
E. feacalis DltA, sequence (Q830N0 1-506): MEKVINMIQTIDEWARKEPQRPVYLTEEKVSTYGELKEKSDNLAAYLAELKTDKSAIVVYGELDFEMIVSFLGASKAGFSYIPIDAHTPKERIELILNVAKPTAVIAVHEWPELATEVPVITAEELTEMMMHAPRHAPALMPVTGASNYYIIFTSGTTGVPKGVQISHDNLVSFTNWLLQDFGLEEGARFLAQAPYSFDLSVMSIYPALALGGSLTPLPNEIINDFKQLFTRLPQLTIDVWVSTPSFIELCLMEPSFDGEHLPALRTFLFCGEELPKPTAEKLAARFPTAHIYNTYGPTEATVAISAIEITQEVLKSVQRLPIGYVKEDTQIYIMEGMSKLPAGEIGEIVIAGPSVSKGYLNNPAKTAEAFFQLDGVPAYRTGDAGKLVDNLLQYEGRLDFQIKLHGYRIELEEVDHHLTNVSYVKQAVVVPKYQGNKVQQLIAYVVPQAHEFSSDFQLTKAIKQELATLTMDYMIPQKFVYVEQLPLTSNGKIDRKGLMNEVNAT

| Compound | pIC50 (S. aureus DltA; [1]) | pIC50 (E. feacium DltA; [2]) | pIC50 (S. Agalactiae DltA; [3]) | pIC50 (E. feacalis DltA; [4]) | pIC50 (S. aureus DltA) | pIC50 (E. feacium DltA) | pIC50 (S. Agalactiae DltA) | pIC50 (E. feacalis DltA) |
| --- | --- | --- | --- | --- | --- | --- | --- | --- |
| CCn1cnc2cc(-c3nc(N(C)CCN(C)C)c(C(N)=O)c4[nH]cnc34)ccc21 [Example 200, 6-[2-(dimethylamino)ethyl-methyl-amino]-4-(1-ethylbenzimidazol-5-yl)-1H-imidazo[4,5-c]pyridine-7-carboxamide] | 7.66 | 6.10 | 5.27 | 7.15 |  |  |  |  |
| CN(C)CCN(C)c1cc(-c2cncc(C3CC3)c2)c2nc[nH]c2c1C(N)=O [Example 202, 4-(5-cyclopropylpyridin-3-yl)-6-((2-(dimethylamino)ethyl)-(methyl)amino)-1H-benzo[d]imidazole-7-carboxamide] | 6.96 | 6.72 | 5.70 | 7.02 |  |  |  |  |
| CCCCn1cnc2cc(-c3cc(N(C)CCN(C)C)c(C(N)=O)c4[nH]cnc34)ccc21 [Example 203, 7-(1-butylbenzimidazol-5-yl)-5-[2-(dimethylamino)ethyl-methyl-amino]-3H-benzimidazole-4-carboxamide] | 7.55 | 6.96 | 6.46 | 8.14 |  |  |  |  |
| CN(C)CCN(C)c1cc(-c2ccc3c(c2)ncn3-c2ccccc2)c2nc[nH]c2c1C(N)=O [Example 204, 5-[2-(dimethylamino)ethyl-methyl-amino]-7-(1-phenylbenzimidazol-5-yl)-3H-benzimidazole-4-carboxamide] | 7.77 | 7.24 | 5.85 | 7.92 |  |  |  |  |
| CN(C)CCN(C)c1cc(-c2ccc(N(C)C)nc2)c2nc[nH]c2c1C(N)=O [Example 205, 5-[2-(dimethylamino)ethyl-methyl-amino]-7-[6-(dimethylamino)-3-pyridyl]-3H-benzimidazole-4-carboxamide] | 6.85 | 7.52 | 5.37 | 8.04 |  |  |  |  |
| CN1CCCC(Oc2cc(-c3cnc4c(c3)CCCO4)c3nc[nH]c3c2C(N)=O)C1 (stereo not drawn) [Example 208, 7-(3,4-dihydro-2H-pyrano[2,3-b]pyridin-6-yl)-5-[(1-methyl-3-piperidyl)oxy]-3H-benzimidazole-4-carboxamide methanesulfonic acid salt] | 6.64 | 6.55 | 5.72 | 7.21 |  |  |  |  |
| CN1CCC[C@@H]1COc1cc(-c2cnc3c(c2)CCCO3)c2nc[nH]c2c1C(N)=O [Example 210, 7-(3,4-dihydro-2H-pyrano[2,3-b]pyridin-6-yl)-5-[[(2R)-1-methylpyrrolidin-2-yl]methoxy]-3H-benzimidazole-4-carboxamide methanesulfonic acid salt] | 8.21 | 7.44 | 6.82 | 8.29 |  |  |  |  |
| NC(=O)c1c(N2CCC(CO)(CO)CC2)cc(-c2ccc3c(c2)ncn3C2CCCCC2)c2nc[nH]c12 [Example 211, 5-[4,4-bis(hydroxymethyl)-1-piperidyl]-7-(1-cyclohexylbenzimidazol-5-yl)-3H-benzimidazole-4-carboxamide] | 7.62 | 8.70 | 6.33 | 8.17 |  |  |  |  |
| NC(=O)c1c(OC[C@H]2CCCN2)cc(-c2ccc3c(c2)ncn3[C@@H]2CCCC[C@H]2F)c2nc[nH]c12 [Example 214, 7-[1-[(1R,2R)-2-fluorocyclohexyl]benzimidazol-5-yl]-5-[[(2R)-pyrrolidin-2-yl]methoxy]-3H-benzimidazole-4-carboxamide methanesulfonic acid salt] |  |  |  |  | 8.40 | 7.49 | 6.41 | 8.40 |
| CN1CCC[C@@H]1COc1cc(-c2ccc3c(c2)ncn3C2CCCOC2)c2nc[nH]c2c1C(N)=O (stereo partly drawn) [Example 215, 5-[[(2R)-1-methylpyrrolidin-2-yl]methoxy]-7-(1-tetrahydropyran-3-ylbenzimidazol-5-yl)-3H-benzimidazole-4-carboxamide methanesulfonic acid salt] | 9.10 | 8.24 |  | 8.85 |  |  | 7.07 |  |
| CN(C)C1CCCN(c2cc(-c3cnc4c(c3)CCCO4)c3nc[nH]c3c2C(N)=O)C1 (stereo not drawn) [Example 222, 7-(3,4-dihydro-2H-pyrano[2,3-b]pyridin-6-yl)-5-[3-(dimethylamino)-1-piperidyl]-3H-benzimidazole-4-carboxamide] | 7.33 | 7.17 | 6.74 | 8.05 |  |  |  |  |
| CCn1cnc2cc(-c3cc(N(C)CCN(C)C)c(C(N)=O)c4[nH]cnc34)cc(F)c21 [Example 227, 5-[2-(dimethylamino)ethyl-methyl-amino]-7-(1-ethyl-7-fluoro-benzimidazol-5-yl)-3H-benzimidazole-4-carboxamide] | 7.49 | 7.08 | 5.89 | 7.52 |  |  |  |  |
| CN(C)CCN(C)c1cc(-c2cncc(N3CCCC3)c2)c2nc[nH]c2c1C(N)=O [Example 230, 5-[2-(dimethylamino)ethyl-methyl-amino]-7-(5-pyrrolidin-1-yl-3-pyridyl)-3H-benzimidazole-4-carboxamide] | 7.19 | 6.55 | 5.68 | 7.52 |  |  |  |  |
| CN1CCCC1COc1cc(-c2cnc3c(c2)CCCO3)c2nc[nH]c2c1C(N)=O (stereo not drawn) [Example 233, 7-(3,4-dihydro-2H-pyrano[2,3-b]pyridin-6-yl)-5-[(1-methylpyrrolidin-2-yl)methoxy]-3H-benzimidazole-4-carboxamide methanesulfonic acid salt] | 8.19 | 7.62 | 6.89 | 8.33 |  |  |  |  |
| CN1CCC[C@@H]1COc1cc(-c2ccc3c(c2)ncn3C2CCCCC2)c2nc[nH]c2c1C(N)=O [Example 236, 7-(1-cyclohexylbenzimidazol-5-yl)-5-[[(2R)-1-methylpyrrolidin-2-yl]methoxy]-3H-benzimidazole-4-carboxamide methanesulfonic acid salt] | 9.40 | 8.44 | 7.04 | 8.85 |  |  |  |  |
